Measurements: patent US5272143A, “6-oxoazepinoindole compounds, and pharmaceutical compositions containing them” (Kali-Chemie Pharma GmbH, priority 1991, dated 1993)

Tests used:
Mouse = tested on: Mouse; parameters: species or system Male mice; conditions: in vivo, po, 4320 min
Protocol: 1. Determination of the minimum toxic dose.
Male mice of 20-25 g weight are administered maximum doses of 300 mg/kg of the test substance p.o. The animals were carefully observed for 3 hours for symptoms of toxicity. Over a period of 72 hours after administration, all symptoms and cases of death are additionally recorded. Concomitant symptoms are likewise observed and recorded. If death or strong toxic symptoms are observed, further mice are administered increasingly lower doses until toxic symptoms no longer occur. The lowest dose which causes death or strong toxic symptoms is given in the following Table A as the minimum toxic dose. The example numbers given in Table A relate to the subsequent preparation examples.

stomach motility = experiment: Determination of effect on stomach motility in anaesthetised rats; type: in vivo, rats of the SIV 50 strain; conditions: rat
Protocol: 2. Determination of effect on stomach motility in anaesthetised rats.
For the tests, groups of 5-6 fasting rats of the SIV 50 strain having a body weight of 220-290 g were used in each test which had been anaesthetised with a ketamine/xylazine mixture. The animals received an initial dose of 1 ml/kg of a solution of 50 mg/ml of ketamine and 10 mg/ml of xylazine administered i.p., and the anaesthetic level was maintained by a continuous intraperitoneal infusion of the same solution at an infusion rate of 1 ml/kg/h. The animals were tracheotomised and laparotomised. After applying a pylorus ligature, a stomach tube was inserted into the stomach and connected at the other end by means of a three-way tap to a calibrated pressure transducer (Statham Element P 23 ID). A corresponding tube was inserted rectally 8-9 cm into the colon and likewise connected in the same manner to a calibrated pressure transducer of the same type. The stomachs of the animals were then filled with 2 ml of water via the tube. After a stabilisation phase of 40 min, the pressure variations in the stomach and colon were measured over a test period of 2 hours and 20 minutes, and the amplitudes produced by the phasic gastric motility were recorded by means of a Watanabe multirecorder (MC 6621). The geometric mean values of the amplitudes during the first 20 min were determined for the individual animals and used as control amplitude values. After the first 20 min, the test substances were administered i.p. The maximum increase in amplitude (=mean value of the 20 minute period in which the highest increase in amplitude occurs) caused by the test substances was determined in % increase of the control amplitude values determined before administration of the test substances, and the mean value for the animal group is given in the following Table A. In addition, the maximum increase in the mean gastric tone caused by the test substances during the test period compared with the mean gastric tone existing before administration of the test substances was recorded. This increase in gastric tone is given in Table A in cm of H2 O (mean value of the animal group). In the colon, the test substances cause amplitude damping.

5-HT1-like receptors = experiment: Serotonin-agonistic contractions in segments of the isolated basilar artery of the pig (in vitro antimigraine activity); type: cell-based; conditions: porcine basilar artery, in vitro; for pD2 = neg. log of Concentration Which Produces 50% of Maximum Contraction: concentrations in mol/l
Source text: 3. Investigation of Properties Indicating Antimigraine Activity of Test Substance in vitro. Migraine pains are associated with excessive dilation of the cranial vascular system. […] This property of the test substances can be used as a basis for predicting anti-migraine activity. The serotoninagonistic activity of the substances on 5-HT1 -like receptors can be determined in vitro in isolated organ strips from the basilar artery of a pig. […] Such a contraction is also produced by the test substances and is a good index of the antimigraine activity of the substances. The tests are carried out according to the method described by van Charldorp et al. (Naunyn-Schmiedeb. Arch. Pharmacol. supp. to volume 341, R89, 1990 and Eur. J. Pharmacol. 183, 1106-1107, 1990). Experimental description of the in vitro determination of the effect inducing serotonin-agonistic contractions in segments of the isolated basilar artery of the pig. For the experiment, helical segments of the basilar artery of pigs were used which were isolated from pig brains supplied by a slaughterhouse. Each strip was fixed in an organ bath consisting of 10 ml of a modified Tyrode solution such that the tissue was under a tension of 10 mN. […] The solution was modified by adding 10^-8 mol/l of indomethacin, 10^-7 mol/l of atropine and 10^-7 mol/l of propanolol and adjusted to pH=7.4. The bath was aerated with a mixture of 95% O2 and 5% CO2. After an equilibration phase of 1 hour a contraction of the tissue was produced twice, in each case by addition of serotonin at a concentration of 10^-5 mol/l and the preparation was subsequently washed out. The contraction effect was then measured with increasing serotonin concentration and a cumulative concentration effect curve for serotonin was drawn up. A cumulative concentration effect curve was drawn up for the test substance on the same preparation (after washing out again). In the following Table B, the maximum contraction caused by the test substances in relationship to the maximum contraction produced by serotonin, and the negative logarithm of that concentration of the test substance which produces 50% of the maximum contraction which can be produced by this test substance (=pD2), and the relative potency calculated as pD2 of the test substance relative to the pD2 of serotonin determined on the same piece of artery are given.

[1] = ip, 10 μmole/kg i.p., read-out: Maximum Amplitude Increase (increase in % of control amplitude)

Row | Compound | Minimum Toxic Dose (Mouse) [mg/kg] | change in vivo at 100 µmol/kg (stomach motility; ip, 100 μmole/kg i.p., read-out: Maximum Amplitude Increase (increase in % of control amplitude)) [%] | Gastric Tone Increase (stomach motility; 100 μmole/kg i.p.) [cm H2O] | Maximum Contraction Produced by Test Substance Relative to Maximum Contraction Produced by Serotonin = 1 (5-HT1-like receptors) | relative potency calculated as pD2 of the test substance relative to the pD2 of serotonin determined on the same piece of artery (5-HT1-like receptors) | pD2 = neg. log of Concentration Which Produces 50% of Maximum Contraction (5-HT1-like receptors) | change in vivo at 10 µmol/kg (stomach motility; [1]) [%] | Gastric Tone Increase (stomach motility; 10 μmole/kg i.p.) [cm H2O]
1 | CNCC1CNC(=O)c2cccc3[nH]cc1c23 (racemic) [Example 4, 3-Methylaminomethyl-3,4,5,6-tetrahydro-6-oxo-1H-azepino[5,4,3-cd]indole] | > 300 | 532 | 9.0 | 0.6 | 0.208 | 6.8 |  | 
2 | Cn1cc2c3c(cccc31)C(=O)NCC2CN (stereo not drawn) [Example 9, 1-methyl-3-aminomethyl-3,4,5,6-tetrahydro-6-oxo-1H-azepino[5,4,3-cd]indole] | > 300 |  |  | 0.5 | 0.124 | 6.4 | 334 | 5.5
3 | NCC1CNC(=O)c2cccc3[nH]cc1c23 (racemic) [Example 1, 3-Aminomethyl-3,4,5,6-tetrahydro-6-oxo-1H-azepino[5,4,3-cd]indole] | > 300 |  |  | 0.8 | 0.132 | 6.5 | 449 | 7.4
